Measured values from ChEMBL document CHEMBL1926606, “Cannabinomimetic lipid from a marine cyanobacterium” (J Nat Prod, 2011).
The source made the active and inactive calls. No cut-off for these calls is given here.

Key:
[1] = target: Cannabinoid receptor 1 (Homo sapiens, UniProt P21554); test: Displacement of [3H]CP55940 from human recombinant CB1 receptor expressed in HEK293 cells after 90 mins; format: cell-based
[2] = target: Cannabinoid receptor 2 (Homo sapiens, UniProt P34972); test: Displacement of [3H]CP55940 from human recombinant CB2 receptor expressed in HEK293 cells after 90 mins; format: cell-based
Chain of Cannabinoid receptor 2 (P34972 whole entry): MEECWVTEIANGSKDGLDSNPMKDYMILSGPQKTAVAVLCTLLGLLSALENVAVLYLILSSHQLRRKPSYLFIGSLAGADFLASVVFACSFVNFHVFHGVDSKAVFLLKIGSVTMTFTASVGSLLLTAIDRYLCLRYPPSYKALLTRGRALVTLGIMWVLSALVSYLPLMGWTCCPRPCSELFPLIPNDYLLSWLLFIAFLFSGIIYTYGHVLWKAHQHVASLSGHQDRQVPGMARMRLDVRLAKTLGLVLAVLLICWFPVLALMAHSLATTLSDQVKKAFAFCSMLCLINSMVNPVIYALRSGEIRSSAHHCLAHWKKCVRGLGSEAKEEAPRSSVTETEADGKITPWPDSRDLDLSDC

[3] = system: NCI-H460; test: Cytotoxicity against human H460 cells assessed as cell survival up to 20 ug/ml; format: functional, cell-based
[4] = species on record: Homo sapiens; test: Selectivity ratio of IC50 for human recombinant CB1 receptor to IC50 for human recombinant CB2 receptor
[5] = system: NCI-H460; test: Cytotoxicity against human H460 cells assessed as cell survival at 50 ug/ml; format: functional; conditions: read-out: Activity
[6] = system: NCI-H460; test: Cytotoxicity against human H460 cells assessed as cell survival at 5 ug/ml; format: functional; conditions: read-out: Activity

Chain of Cannabinoid receptor 1 (P21554 whole entry): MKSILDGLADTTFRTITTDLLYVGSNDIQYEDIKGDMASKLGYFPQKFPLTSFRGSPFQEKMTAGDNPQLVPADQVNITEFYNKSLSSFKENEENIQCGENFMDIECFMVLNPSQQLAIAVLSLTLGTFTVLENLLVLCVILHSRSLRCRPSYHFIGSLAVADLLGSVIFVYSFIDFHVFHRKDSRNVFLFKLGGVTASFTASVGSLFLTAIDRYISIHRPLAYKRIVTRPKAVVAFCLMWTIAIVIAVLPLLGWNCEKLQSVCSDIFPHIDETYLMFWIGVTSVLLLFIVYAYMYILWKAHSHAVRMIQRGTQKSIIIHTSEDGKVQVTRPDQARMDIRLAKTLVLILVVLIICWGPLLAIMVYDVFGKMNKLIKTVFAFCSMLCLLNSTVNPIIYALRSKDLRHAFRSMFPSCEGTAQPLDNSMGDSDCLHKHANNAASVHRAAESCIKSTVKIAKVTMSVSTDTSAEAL

| SMILES | IC50 [1] [µM] | IC50 [2] [µM] | Activity [3] | Ki [1] [µM] | Ki [2] [µM] | Ratio IC50 [4] | viability at 50 µg/mL [5] [%] | viability at 5 µg/mL [6] [%] |
| --- | --- | --- | --- | --- | --- | --- | --- | --- |
| C=C(CCCCCCCCCCCCC)CCCC(=O)O/C=C\COC(C)=O | > 10 | > 10 | inactive |  |  |  |  |  |
| CCCCC/C=C\C/C=C\C/C=C\C/C=C\CCCC(=O)N[C@@H](CO)C(=O)O |  |  |  | > 10 | > 10 |  |  |  |
| CCCCCCCCCCCCC/C=C/CCC(=O)N(C)[C@H](CO)COC [SERINOLAMIDE A] | 2.3 | > 10 |  | 1.3 |  | > 5 | 0 | 60 |
